Source: patent publication US20060217351A1, “Method for treating cardiovascular diseases” (priority 2003, published 2006)

Assays:
platelet aggregation [1] = experiment: anti-platelet aggregation ability of active metabolite enantiomers; conditions: enantiomers of active metabolite II
Description: The active metabolite is a mixture of four enantiomers each of which has shown dose dependent anti-platelet aggregation ability, and thus useful for the practice of the invention.

cerebral infarct = experiment: embolic cerebral infarction model; type: in vivo; conditions: rats
platelet aggregation [2] = experiment: comparative study of inhibition of platelet aggregation; type: in vivo; conditions: for inhibition of platelet aggregation: in thirty (30) minutes
thrombus formation = conditions: rats, p.o., cited from earlier work; for ED50, prevention of thrombus formation: arteriovenous shunt model
[3] = storage stability of crystals; type: physicochemical; conditions: crystal form comparison

Row | SMILES | effect on total area of cerebral infarct (cerebral infarct) | inhibition of platelet aggregation (platelet aggregation [2]) | ED50, prevention of thrombus formation (thrombus formation) [mg/kg] | storage stability [3] | also measured
1 | O=C(O)/C=C1/CN(C(C(=O)C2CC2)c2ccccc2F)CCC1S (stereo not drawn) [RS enantiomer] |  |  |  |  | anti-platelet aggregation ability (platelet aggregation [1]): most potent
2 | COC(=O)[C@H](c1ccccc1Cl)N1CCc2sccc2C1 [clopidogrel bisulfate] | similar, yet milder effect on cerebral infarcts |  |  |  | potency compared to compound of formula I (times less potent) (cerebral infarct): about 10 times
3 | COC(=O)[C@H](c1ccccc1Cl)N1CCc2sccc2C1 [clopidogrel, reference compound] |  | minimal aggregation | 7.0 |  | 
4 | CC(=O)Oc1cc2c(s1)CCN(C(C(=O)C1CC1)c1ccccc1F)C2 (stereo not drawn) [compound of formula I, 2-Acetoxy-5-(α-cyclopropylcarbonyl-2-fluorobenzyl)-4,5,6,7-tetrahydrothieno[3,2-c]pyridine] | reduced the total area of cerebral infarct in rats, in a dose related manner | greater than 50% | 0.65 |  | potency compared to clopidogrel (times higher) (platelet aggregation [2]; in vivo, versus clopidogrel): approximately 10 times; effect on thrombus formation (thrombus formation; 0.12-3 mg/kg): prevented thrombus formation in a dose dependent manner
5 | CC(=O)Oc1cc2c(s1)CCN(C(C(=O)C1CC1)c1ccccc1F)C2.Cl (stereo not drawn) [crystal B1, 2-Acetoxy-5-(α-cyclopropylcarbonyl-2-fluorobenzyl)-4,5,6,7-tetrahydrothieno[3,2-c]pyridine hydrochloride (crystal B1)] |  |  |  | more excellent storage stability than crystal A | 
6 | CC(=O)Oc1cc2c(s1)CCN(C(C(=O)C1CC1)c1ccccc1F)C2.Cl (stereo not drawn) [crystal B2, 2-Acetoxy-5-(α-cyclopropylcarbonyl-2-fluorobenzyl)-4,5,6,7-tetrahydrothieno[3,2-c]pyridine hydrochloride (crystal B2)] |  |  |  | more excellent storage stability than crystal B1 | 
